# Measured values taken from patent publication US20090264382A1, “Methods for Treating Hematopoietic Neoplasms” (priority 2007, published 2009).
# Assays:
# [1] = system: AML cells / panel of leukemic cell lines; test: Leukemic cell proliferation, viable cell count by trypan blue exclusion; type: cell-based, human; settings: 48 hours
# Procedure: Leukemic cells were seeded at 1×10^5 cells/ml in X-vivo medium (Bio-Whittaker, MA) with 5% FBS and CA4P or pre-incubated with the PARP-inhibitor DPQ or caspase-inhibitors Z-VAD-fmk and Q-VD-OPh (R&D, Minneapolis, Minn.). A panel of leukemic cells was incubated with CA4P at the different concentrations indicated in FIG. 1, and viable cells were counted after 48 hours using trypan blue exclusion. Results of four experiments in duplicate are expressed as the ratio of the percentage of viable cells/control±SEM (*p<0.05 as compared with CA4P-untreated cells; n=4). After incubation for 48 hours, cells were counted using trypan-blue exclusion. CA4P at concentrations as low as 1 nM initiated cell death of non-adherent, anchorage-independent AML cells in vitro, with the IC50 ranging from 2.5 to 5 nM (FIG. 1). The majority of the AML cell lines tested was sensitive to CA4P at a concentration of 2.5 nM or less. All leukemic cell lines, as well as a recently established primary leukemic cell line (R81) 16 were sensitive at low doses of CA4P (<10 nM).
# [2] = system: HL60 and U937 AML cells on HUVECs; test: Leukemic cell adhesion to and co-culture with HUVECs; type: cell-based, human
# Procedure: To assess leukemic cell adhesion, 1×10^5 GFP+HL60 or U937 cells in X-vivo/5% FBS were added per well. The percentage of GFP++adherent cells was quantified by fluorescent microscopy. To compare the resistance of vascular-adherent to non-adherent leukemic cells in co-culture, leukemic cells were seeded on either IL-1β-activated or non-activated HUVECs, with addition of CA4P. After 48 hours, GFP++leukemic cells were removed from the wells by trypsinization and quantified by fluorescence microscopy and flow cytometry. […] The number of adherent cells is expressed as a percentage of total leukemic cells and representative of three independent experiments performed in triplicate SEM (*p<0.05 as compared to CA4P-untreated control).
# Survival of GFP+U937 (E) and HL60 (F) leukemic cells co-cultured with HUVECs is expressed as a percentage of total cells. Adherent (i.e. attached to IL-1β activated HUVECs) and non-adherent leukemic cells (i.e. cultured with non-activated HUVECs) are depicted. Results are representative of three independent experiments performed in triplicate±SEM (*p<0.05).
# VCAM-1 [3] = test: VCAM-1 immunofluorescence in subcutaneous HL60 AML tumors; type: in vivo, NOD-SCID mice; settings: data not shown
# Procedure: CA4P may modulate leukemia-vascular interactions, thereby disrupting chemo-protected niches for leukemic cells. […] NOD-SCID mice with subcutaneous HL60 AML tumors were treated with CA4P or PBS (untreated control).
# KG1a leukemic cells = test: Cell cycle analysis with propidium iodide; type: cell-based, human; settings: 5 and 10 nM, 48 hours
# VCAM-1 [4] = test: IL-1β-induced VCAM-1 expression in HUVECs, flow cytometry; type: cell-based, human; settings: 1 to 5 nM
# Procedure: Human umbilical vein endothelial cells (HUVECs) were activated with IL-1β (5 ng/ml) for 24 hours with CA4P added at concentrations from 0 to 5 nM. VCAM-1 expression was determined by flow cytometry with phytoerythrin-conjugated anti-CD106 (VCAM-1) mAb.
# [5] = system: human umbilical cord derived (CB) CD34+ cells; test: Cord blood CD34+ cell viability and colony formation; type: cell-based
# Procedure: Cord blood CD34+ cells were isolated by magnetic procedure and cultured with recombinant human SCF (50 ng/ml, Peprotech) and CA4P for 48 h. Annexin/PI staining was then performed. CD34+ cells were also cultured in methylcellulose supplemented with cytokines and CA4P (Stem cell technologies, Vancouver, Canada) for 14 days. Colonies were scored. […] As such, CA4P used as single agent can selectively target circulating and or tissue-resident hematopoietic neoplasms without incurring significant hematological toxicity.
# HL60 subcutaneous tumors = test: Subcutaneous in vivo leukemia model; design: species or system NOD-SCID mice
# Procedure: HL60 (5×10^6 cells) were injected subcutaneously into the dorsa of seven-week-old NOD-SCID mice (Jackson Laboratory). When mice bore a tumor (i.e. after 12 days), 4 experimental groups were randomized, each with 9 animals. Daily treatment was initiated at this time: the CA4P groups were subjected to intraperitoneal injection of CA4P at 10, 25 and 50 mg/kg body weight, and the control group received PBS. After a 3-day treatment, animals were sacrificed, tumors removed and then subjected to immunohistochemical analysis. Tumors were embedded in paraffin, serially sectioned, and stained with hematoxylin and eosin for histological analysis. Cell death was assessed by TUNEL assay. Cell death within paraffin-embedded tumor sections was detected by TUNEL reaction (Roche Diagnostics). The detection of cell death in this assay relies on the detection of free 3′OH DNA ends.
# Tumors from mice treated with CA4P for 3 days were softer and hemorrhagic (particularly when treated with 50 mg/kg) than those observed in the control group. […] The control tumor sections were negative for TUNEL reaction. […] The extent of intra-tumor vascularization within the different groups was assessed by immunostaining for the endothelial-specific antigen MECA-32. […] The neo-vessel density was evaluated by microscopic counting of 5 fields at 10× magnification, and presented as mean number of microvessels per microscopic field±SEM (*p<0.05 as compared with the PBS control group; n=5). The decrease in intra-tumor vascularization induced by CA4P was dose dependent (54±13%, 68±6% and 90±3% decrease for 10, 25 and 50 mg/kg, respectively).
smiles,measurement,setting,value
"COc1ccc(/C=C\c2cc(OC)c(OC)c(OC)c2)cc1OP(=O)(O)O [CA4P, combretastatin A-4 phosphate]",concentration at which all leukemic cell lines and primary line R81 were sensitive,[1],< 10 nM
same,concentration at which the majority of the AML cell lines tested was sensitive,[1],≤ 2.5 nM
same,lowest concentration that initiated cell death of AML cells,[1]; in vitro,1 nM
same,IC50,"[1]; Homo sapiens, trypan blue exclusion, range over cell lines, read-out: IC50, cell death of non-adherent, anchorage-independent AML cells",2.5 to 5 nM
same,attachment of HL60 and U937 AML cells to HUVECs,[2]; in vitro,decreased attachment
same,sensitivity of leukemic cells to CA4P with decreased adhesion to HUVECs,"[2]; non-adherent vs adherent to IL-1β activated HUVECs, 48 hours",more sensitive
same,VCAM-1 expression in tumors,VCAM-1 [3],significantly decreased VCAM-1 expression
same,cell cycle effect,KG1a leukemic cells,G2/M arrest
same,apoptosis of HUVECs,VCAM-1 [4],without inducing apoptosis
same,VCAM-1 expression on IL-1β-activated HUVECs,"VCAM-1 [4]; 24 hours, IL-1β 5 ng/ml",significantly reduced expression of VCAM-1
same,CD34+ cell viability (Annexin/PI staining),[5]; 48 h with SCF 50 ng/ml,only minimal effect on cell viability
same,colony-forming potential of CD34+ cells,"[5]; methylcellulose, 14 days",did not impair colony-forming potential
same,decrease in intra-tumor vascularization (MECA-32 microvessel density),"HL60 subcutaneous tumors; 10 mg/kg i.p. daily, 3 days",54±13%
same,decrease in intra-tumor vascularization (MECA-32 microvessel density),"HL60 subcutaneous tumors; 25 mg/kg i.p. daily, 3 days",68±6%
same,decrease in intra-tumor vascularization (MECA-32 microvessel density),"HL60 subcutaneous tumors; 50 mg/kg i.p. daily, 3 days",90±3%
same,tumor histology,"HL60 subcutaneous tumors; 10, 25 and 50 mg/kg, 3 days",largely necrotic
same,cell death in tumor sections (TUNEL),"HL60 subcutaneous tumors; low to high doses, data not shown",most of the leukemic cells were non-viable
